Assay results: patent publication US7179831B2, “5-[3-(4-benzyloxyphenylthio)-fur-2-yl]-imidazolidin-2, 4-dione and analogues as inhibitors of macrophage elastase” (Quest Pharmaceutical Services, priority 2004, dated 2007)

Target: T1, MMP-9 (Homo sapiens, UniProt P14780)
T1 construct: All the enzymes are recombinant human active domains from E. coli (Biomol); purchased Biomol; host or cells: E. coli
Test: MMP inhibitory assay, fluorescent substrate, MMP-9
Format: biochemical
Conditions: recombinant human active domain, substrate 4 uM, room temperature
Description: (§1) The enzymatic activities of MMPs were assayed according to manufacture protocols (Biomol Reseaerch Laboratory, Inc. E-mail: info@biomol.com). All the enzymes are recombinant human active domains from E. coli (Biomol). The fluorescent substrate has the sequence of (7-methoxycoumarin-4-yl) acetyl-Pro-Leu-Gly-Leu-N-3-(2,4-dinitrophenyl)-L-α,β-diaminopropionyl-Ala-Arg-NH2.AcOH. All the assays were conducted at room temperature with 96 well flat bottom black plate (Nalge Nunc International, Catalog number, 465200). Briefly, certain amount of enzyme in 89 ul of assay buffer (50 mM Hepes, 10 mM CaCl2, 0.05% Brij 35, pH 7.5) was incubated with (7 concentration per set) or without inhibitor (in 1 ul of DMSO, or 1 ul DMSO only) for 20 min. Then the enzymatic reaction was initiated by the addition of the substrate (40 uM in 10 ul of assay buffer and the final concentration of the substrate is 4 uM). The activity was determined by measuring the fluorescence at Ex/Em=328 nm/393 nm and it was linear within 2 hrs. The fluorescence was read at 0 and 20 or 40 min. The reading at 0 time would be considered as the background and subtracted from the final reading. The IC50 was obtained by plotting the fluorescences versus the concentrations of the inhibitors of each assay with Prism software. […] Mechanism studies reveal that the inhibitors are competitive. For competitive inhibitor: Ki=IC50/(1+[S]/Km)

T1 sequence (P14780 107-444 limits assumed): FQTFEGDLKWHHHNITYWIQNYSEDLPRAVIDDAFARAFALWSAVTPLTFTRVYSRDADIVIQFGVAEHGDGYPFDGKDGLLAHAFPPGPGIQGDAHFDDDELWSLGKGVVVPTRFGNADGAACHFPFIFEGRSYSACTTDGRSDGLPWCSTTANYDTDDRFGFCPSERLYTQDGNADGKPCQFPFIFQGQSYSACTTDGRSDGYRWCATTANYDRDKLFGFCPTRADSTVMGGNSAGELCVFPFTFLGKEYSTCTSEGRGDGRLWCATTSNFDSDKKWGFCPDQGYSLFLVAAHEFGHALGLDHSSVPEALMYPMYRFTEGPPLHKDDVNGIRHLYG

IC50 [nM]	SMILES
2080	Cc1ccccc1COc1ccc(Sc2ccoc2C2NC(=O)NC2=O)cc1 (stereo not drawn) [IVp, 5-{3-[4-(2-Methyl-benzyloxy)phenylthio]fur-2-yl}imidazolidine-2,4-dione]
4470	O=C1NC(=O)C(c2occc2Sc2ccc(OCc3ccc(OCc4ccccc4)cc3)cc2)N1 (stereo not drawn) [IVb, 5-{3-[4-(4-Benzyloxybenzyloxy)phenylthio]fur-2-yl}imidazolidine-2,4-dione]
740	COc1ccc(COc2ccc(Sc3ccoc3C3NC(=O)NC3=O)cc2)cc1 (stereo not drawn) [IVd, 5-{3-[4-(4-Methoxybenzyloxy)phenylthio]fur-2-yl}imidazolidine-2,4-dione]
1440	O=C1NC(=O)C(c2occc2Sc2ccc(OCc3cccc(Cl)c3)cc2)N1 (stereo not drawn) [IVi, 5-{3-[4-(3-Chlorobenzyloxy)phenylthio]fur-2-yl}imidazolidine-2,4-dione]

Target: T2, MMP-13 (Homo sapiens, UniProt P45452)
T2 construct: All the enzymes are recombinant human active domains from E. coli (Biomol); purchased Biomol; host or cells: E. coli
Test: MMP inhibitory assay, fluorescent substrate, MMP-13
Format: biochemical
Conditions: recombinant human active domain, substrate 4 uM, room temperature
Description: as §1

IC50 [nM]	SMILES
4260	Cc1ccccc1COc1ccc(Sc2ccoc2C2NC(=O)NC2=O)cc1 (stereo not drawn) [IVp, 5-{3-[4-(2-Methyl-benzyloxy)phenylthio]fur-2-yl}imidazolidine-2,4-dione]
335	O=C1NC(=O)C(c2occc2Sc2ccc(OCc3ccc(OCc4ccccc4)cc3)cc2)N1 (stereo not drawn) [IVb, 5-{3-[4-(4-Benzyloxybenzyloxy)phenylthio]fur-2-yl}imidazolidine-2,4-dione]
260	COc1ccc(COc2ccc(Sc3ccoc3C3NC(=O)NC3=O)cc2)cc1 (stereo not drawn) [IVd, 5-{3-[4-(4-Methoxybenzyloxy)phenylthio]fur-2-yl}imidazolidine-2,4-dione]
773	O=C1NC(=O)C(c2occc2Sc2ccc(OCc3cccc(Cl)c3)cc2)N1 (stereo not drawn) [IVi, 5-{3-[4-(3-Chlorobenzyloxy)phenylthio]fur-2-yl}imidazolidine-2,4-dione]

Target: T3, MMP-2 (Homo sapiens, UniProt P08253)
T3 construct: All the enzymes are recombinant human active domains from E. coli (Biomol); purchased Biomol; host or cells: E. coli
Test: MMP inhibitory assay, fluorescent substrate, MMP-2
Format: biochemical
Conditions: recombinant human active domain, substrate 4 uM, room temperature
Description: as §1

T3 sequence (P08253 110-446 limits assumed): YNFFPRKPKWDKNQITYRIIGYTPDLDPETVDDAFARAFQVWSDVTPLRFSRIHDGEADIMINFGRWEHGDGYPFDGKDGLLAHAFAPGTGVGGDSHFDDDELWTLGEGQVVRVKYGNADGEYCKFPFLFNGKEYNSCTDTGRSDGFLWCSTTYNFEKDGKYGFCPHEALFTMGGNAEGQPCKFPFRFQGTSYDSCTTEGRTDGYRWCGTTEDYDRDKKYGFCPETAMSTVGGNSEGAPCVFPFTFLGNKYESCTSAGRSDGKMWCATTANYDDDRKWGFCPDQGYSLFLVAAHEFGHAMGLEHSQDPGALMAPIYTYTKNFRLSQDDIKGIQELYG

IC50 [nM]	SMILES
7030	Cc1ccccc1COc1ccc(Sc2ccoc2C2NC(=O)NC2=O)cc1 (stereo not drawn) [IVp, 5-{3-[4-(2-Methyl-benzyloxy)phenylthio]fur-2-yl}imidazolidine-2,4-dione]
1180	O=C1NC(=O)C(c2occc2Sc2ccc(OCc3ccc(OCc4ccccc4)cc3)cc2)N1 (stereo not drawn) [IVb, 5-{3-[4-(4-Benzyloxybenzyloxy)phenylthio]fur-2-yl}imidazolidine-2,4-dione]
422	COc1ccc(COc2ccc(Sc3ccoc3C3NC(=O)NC3=O)cc2)cc1 (stereo not drawn) [IVd, 5-{3-[4-(4-Methoxybenzyloxy)phenylthio]fur-2-yl}imidazolidine-2,4-dione]
1020	O=C1NC(=O)C(c2occc2Sc2ccc(OCc3cccc(Cl)c3)cc2)N1 (stereo not drawn) [IVi, 5-{3-[4-(3-Chlorobenzyloxy)phenylthio]fur-2-yl}imidazolidine-2,4-dione]

Target: T4, MMP-12 (Homo sapiens, UniProt P39900)
T4 construct: All the enzymes are recombinant human active domains from E. coli (Biomol); purchased Biomol; host or cells: E. coli
Test: MMP inhibitory assay, fluorescent substrate, MMP-12
Format: biochemical
Conditions: recombinant human active domain, substrate 4 uM, room temperature
Description: as §1
In the assay conditions, [S](4 uM) is smaller than Km (20 uM for MMP-12). So Ki equal to IC50/1.2, which is little smaller than IC50, or roughly equal to IC50.

T4 sequence (P39900 106-263 limits assumed): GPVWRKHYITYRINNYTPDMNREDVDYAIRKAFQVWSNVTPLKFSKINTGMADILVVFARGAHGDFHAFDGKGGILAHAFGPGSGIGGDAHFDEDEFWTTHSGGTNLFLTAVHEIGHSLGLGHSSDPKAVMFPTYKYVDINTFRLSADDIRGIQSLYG

IC50 [nM]	SMILES
42	Cc1ccccc1COc1ccc(Sc2ccoc2C2NC(=O)NC2=O)cc1 (stereo not drawn) [IVp, 5-{3-[4-(2-Methyl-benzyloxy)phenylthio]fur-2-yl}imidazolidine-2,4-dione]
84	O=C1NC(=O)C(c2occc2Sc2ccc(OCc3ccc(OCc4ccccc4)cc3)cc2)N1 (stereo not drawn) [IVb, 5-{3-[4-(4-Benzyloxybenzyloxy)phenylthio]fur-2-yl}imidazolidine-2,4-dione]
10	COc1ccc(COc2ccc(Sc3ccoc3C3NC(=O)NC3=O)cc2)cc1 (stereo not drawn) [IVd, 5-{3-[4-(4-Methoxybenzyloxy)phenylthio]fur-2-yl}imidazolidine-2,4-dione]
22	O=C1NC(=O)C(c2occc2Sc2ccc(OCc3cccc(Cl)c3)cc2)N1 (stereo not drawn) [IVi, 5-{3-[4-(3-Chlorobenzyloxy)phenylthio]fur-2-yl}imidazolidine-2,4-dione]

Target: T5, MMP-7 (Homo sapiens, UniProt P09237)
T5 construct: All the enzymes are recombinant human active domains from E. coli (Biomol); purchased Biomol; host or cells: E. coli
T5 sequence (P09237 95-267): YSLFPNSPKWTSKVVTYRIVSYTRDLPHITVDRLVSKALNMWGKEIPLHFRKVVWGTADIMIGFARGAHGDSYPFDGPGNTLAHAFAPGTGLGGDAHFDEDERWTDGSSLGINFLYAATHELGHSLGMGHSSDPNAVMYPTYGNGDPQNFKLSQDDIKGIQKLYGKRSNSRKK
Test: MMP inhibitory assay, fluorescent substrate, MMP-7
Format: biochemical
Conditions: recombinant human active domain, substrate 4 uM, room temperature
Description: as §1

IC50 [nM]	SMILES
1880	O=C1NC(=O)C(c2occc2Sc2ccc(OCc3ccc(OCc4ccccc4)cc3)cc2)N1 (stereo not drawn) [IVb, 5-{3-[4-(4-Benzyloxybenzyloxy)phenylthio]fur-2-yl}imidazolidine-2,4-dione]
7600	COc1ccc(COc2ccc(Sc3ccoc3C3NC(=O)NC3=O)cc2)cc1 (stereo not drawn) [IVd, 5-{3-[4-(4-Methoxybenzyloxy)phenylthio]fur-2-yl}imidazolidine-2,4-dione]
676000	O=C1NC(=O)C(c2occc2Sc2ccc(OCc3cccc(Cl)c3)cc2)N1 (stereo not drawn) [IVi, 5-{3-[4-(3-Chlorobenzyloxy)phenylthio]fur-2-yl}imidazolidine-2,4-dione]

Target: T6, MMP-1 (Homo sapiens, UniProt P03956)
T6 construct: All the enzymes are recombinant human active domains from E. coli (Biomol); purchased Biomol; host or cells: E. coli
T6 sequence (P03956 100-269 limits assumed): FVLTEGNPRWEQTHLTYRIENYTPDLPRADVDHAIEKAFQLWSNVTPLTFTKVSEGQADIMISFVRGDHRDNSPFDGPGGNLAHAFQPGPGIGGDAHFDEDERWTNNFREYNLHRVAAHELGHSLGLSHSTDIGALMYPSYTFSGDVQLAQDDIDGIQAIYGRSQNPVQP
Test: MMP inhibitory assay, fluorescent substrate, MMP-1
Format: biochemical
Conditions: recombinant human active domain, substrate 4 uM, room temperature
Description: as §1

IC50 [nM]	SMILES
> 40000	Cc1ccccc1COc1ccc(Sc2ccoc2C2NC(=O)NC2=O)cc1 (stereo not drawn) [IVp, 5-{3-[4-(2-Methyl-benzyloxy)phenylthio]fur-2-yl}imidazolidine-2,4-dione]
> 40000	O=C1NC(=O)C(c2occc2Sc2ccc(OCc3ccc(OCc4ccccc4)cc3)cc2)N1 (stereo not drawn) [IVb, 5-{3-[4-(4-Benzyloxybenzyloxy)phenylthio]fur-2-yl}imidazolidine-2,4-dione]
> 40000	COc1ccc(COc2ccc(Sc3ccoc3C3NC(=O)NC3=O)cc2)cc1 (stereo not drawn) [IVd, 5-{3-[4-(4-Methoxybenzyloxy)phenylthio]fur-2-yl}imidazolidine-2,4-dione]
> 40000	O=C1NC(=O)C(c2occc2Sc2ccc(OCc3cccc(Cl)c3)cc2)N1 (stereo not drawn) [IVi, 5-{3-[4-(3-Chlorobenzyloxy)phenylthio]fur-2-yl}imidazolidine-2,4-dione]

Target: T7, MMP-3 (Homo sapiens, UniProt P08254)
T7 construct: All the enzymes are recombinant human active domains from E. coli (Biomol); purchased Biomol; host or cells: E. coli
Test: MMP inhibitory assay, fluorescent substrate, MMP-3
Format: biochemical
Conditions: recombinant human active domain, substrate 4 uM, room temperature
Description: as §1

T7 sequence (P08254 100-272 limits assumed): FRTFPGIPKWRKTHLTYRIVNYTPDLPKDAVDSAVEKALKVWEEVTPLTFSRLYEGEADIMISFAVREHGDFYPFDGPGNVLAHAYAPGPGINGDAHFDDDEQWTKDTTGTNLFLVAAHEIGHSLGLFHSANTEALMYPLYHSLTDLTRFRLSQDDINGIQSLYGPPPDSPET

IC50 [nM]	SMILES
4040	Cc1ccccc1COc1ccc(Sc2ccoc2C2NC(=O)NC2=O)cc1 (stereo not drawn) [IVp, 5-{3-[4-(2-Methyl-benzyloxy)phenylthio]fur-2-yl}imidazolidine-2,4-dione]
383	O=C1NC(=O)C(c2occc2Sc2ccc(OCc3ccc(OCc4ccccc4)cc3)cc2)N1 (stereo not drawn) [IVb, 5-{3-[4-(4-Benzyloxybenzyloxy)phenylthio]fur-2-yl}imidazolidine-2,4-dione]
318	COc1ccc(COc2ccc(Sc3ccoc3C3NC(=O)NC3=O)cc2)cc1 (stereo not drawn) [IVd, 5-{3-[4-(4-Methoxybenzyloxy)phenylthio]fur-2-yl}imidazolidine-2,4-dione]
298	O=C1NC(=O)C(c2occc2Sc2ccc(OCc3cccc(Cl)c3)cc2)N1 (stereo not drawn) [IVi, 5-{3-[4-(3-Chlorobenzyloxy)phenylthio]fur-2-yl}imidazolidine-2,4-dione]
